Some test systems named below: SNB-78 CNS; DLD-1 colon; XF 498 CNS; KM20L2 colon; HOP-18 NSCLC; DMS 114 small cell lung; DMS 273 small cell lung; LXFL 529 NSCLC.
Test in all cases: NCI tumour cell line growth inhibition, 48 h

The structures appear in SMILES notation.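 A five-concentration, 48-hour dose response in 96-well plates underlies each endpoint, interpolated linearly between surrounding concentrations. GI50 marks 50% less growth. Definition used: TGI = concentration required for complete inhibition of growth.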 Calls of active or inactive are those of the source. No stated cut-off is given here; in the data, active means GI50 below about 0.43 µM; inactive means the rest.

Regarding `NCCCNCCCCNC(=O)C(O)NC(=O)CCCCCCN=C(N)N` (stereo not drawn), the TGI in the test with SNB-78 CNS is > 750 µM; with DLD-1 colon it was 750 µM; in the test on XF 498 CNS, 119 µM; with KM20L2 colon, 734 µM; with HOP-18 NSCLC, 744 µM; with DMS 114 small cell lung it was 581 µM. In addition, in the test with DMS 273 small cell lung, the TGI was > 750 µM.

Turning to `Cc1cc(C)c(-n2c(-c3ccc(Br)cc3)cs/c2=N\N=C2C=C(C(C)(C)C)C(=O)C(C(C)(C)C)=C2)c(C)c1`, the TGI with SNB-78 CNS, in the test on DLD-1 colon, in the test with XF 498 CNS, in the test with KM20L2 colon, in the test on HOP-18 NSCLC and in the test with DMS 114 small cell lung was > 100 µM each time. Besides, the TGI in the test on DMS 273 small cell lung and in the test with LXFL 529 NSCLC was > 100 µM in each case.

For the molecule `COC(=O)Nc1nc2ccc(Br)cc2[nH]1`, the TGI in the test with SNB-78 CNS was > 100 µM; in the test with DLD-1 colon, > 100 µM; with XF 498 CNS, 86.5 µM; in the test on KM20L2 colon, 64.1 µM; in the test with HOP-18 NSCLC it was > 100 µM; in the test with DMS 114 small cell lung, > 100 µM. Besides, the TGI in the test on DMS 273 small cell lung and with LXFL 529 NSCLC was > 100 µM throughout.

In the case of `Cc1cccc(NC(=O)c2cccc([N+](=O)[O-])c2O)c1C`, the TGI in the test with SNB-78 CNS was > 100 µM; with DLD-1 colon, > 100 µM; in the test on XF 498 CNS, 61 µM; with KM20L2 colon, 83.2 µM; in the test with HOP-18 NSCLC, > 100 µM; in the test on DMS 114 small cell lung, > 100 µM. The TGI in the test with DMS 273 small cell lung was 97.7 µM; with LXFL 529 NSCLC, > 100 µM.

In the case of `COc1ccccc1NC(=O)CC(=O)N/N=C/c1ccc(N(CCC#N)S(=O)(=O)c2ccccc2)cc1`, the TGI in the test on SNB-78 CNS, in the test with DLD-1 colon, with XF 498 CNS, in the test on KM20L2 colon, in the test on HOP-18 NSCLC and with DMS 114 small cell lung was > 100 µM each time. Moreover, the TGI with LXFL 529 NSCLC was > 100 µM.

As to `CCCSS[C@H]1NC(=O)[C@H]1NC(=O)COc1ccccc1`, the TGI is 60.6 µM with SNB-78 CNS; 23.2 µM in the test with DLD-1 colon; 33.8 µM with XF 498 CNS; 42.4 µM in the test with KM20L2 colon; 66.7 µM in the test with HOP-18 NSCLC; 34.5 µM in the test with DMS 114 small cell lung. The TGI in the test on DMS 273 small cell lung came out at 31.2 µM; in the test on LXFL 529 NSCLC it was 18.3 µM.

In the case of `COc1cccc(NC(=O)/C(Cc2nc3ccccc3nc2C)=N/NC(=O)C[n+]2ccccc2)c1`, the TGI in the test with SNB-78 CNS, in the test with DLD-1 colon, in the test with XF 498 CNS, with KM20L2 colon, with HOP-18 NSCLC and in the test on DMS 114 small cell lung was > 100 µM each time. Further, the TGI with DMS 273 small cell lung and in the test with LXFL 529 NSCLC was > 100 µM throughout.

As for `Cc1cc(C)cc(NC(N)=S)c1`, the TGI with SNB-78 CNS, with DLD-1 colon, with XF 498 CNS, in the test on KM20L2 colon, in the test with DMS 114 small cell lung and in the test on DMS 273 small cell lung was > 100 µM each time. For the same molecule, the TGI in the test with LXFL 529 NSCLC was > 100 µM.

Regarding `CCN(CC)C(=O)C(C)n1cc(C)c(=O)[nH]c1=O` (stereo not drawn), the TGI with SNB-78 CNS, in the test with XF 498 CNS, with KM20L2 colon, with DMS 114 small cell lung, with DMS 273 small cell lung and in the test with LXFL 529 NSCLC was > 100 µM in each case.

With `COc1ccc(C2ON(c3cccc(C)n3)CC=C2C)cc1` (stereo not drawn), the TGI with SNB-78 CNS, in the test on DLD-1 colon, in the test on XF 498 CNS, in the test with KM20L2 colon, in the test with HOP-18 NSCLC and with DMS 114 small cell lung was > 100 µM throughout. Besides, the TGI with DMS 273 small cell lung and in the test with LXFL 529 NSCLC was > 100 µM in each case.

For `COC(C)(C)C/C=C/C(C)=C/C=C/C(C)=C\C=C\C(C)=C\C=C\C=C(C)\C=C\C=C(C)\C=C\C=C(C)\C=C\CC(C)(C)OC`, the GI50 in the test with DLD-1 colon, in the test with DMS 114 small cell lung and with DMS 273 small cell lung was > 150 µg/mL throughout. The TGI in the test on DLD-1 colon, in the test with DMS 114 small cell lung and in the test with DMS 273 small cell lung was > 150 µg/mL each time. In addition, the result in the test on XF 498 CNS, in the test on KM20L2 colon and in the test on LXFL 529 NSCLC was inactive.

On to `N#CC1CC2(CCN1C(=O)c1ccccc1)OCCO2` (stereo not drawn), for which the TGI in the test with SNB-78 CNS, in the test on DLD-1 colon, in the test on XF 498 CNS, with KM20L2 colon, in the test on HOP-18 NSCLC and in the test on DMS 114 small cell lung was > 100 µM each time. The TGI with DMS 273 small cell lung and in the test on LXFL 529 NSCLC was > 100 µM each time.

For `O=C(NC12CC3CC(CC(C3)C1)C2)C(=O)c1c[nH]c2ccccc12`, the TGI with SNB-78 CNS came to 40.3 µM; with XF 498 CNS, 25.7 µM; in the test on KM20L2 colon, 19.7 µM; in the test on DMS 114 small cell lung it was 36 µM; in the test on DMS 273 small cell lung, 29.6 µM; in the test with LXFL 529 NSCLC it was 26.5 µM.

For the molecule `CC(=O)C1=C(O)CC2CC3c4[nH]c5ccccc5c4CCN3CC2C1` (stereo not drawn), the TGI in the test with SNB-78 CNS, in the test with DLD-1 colon, with XF 498 CNS, in the test with KM20L2 colon, in the test on HOP-18 NSCLC and in the test with DMS 114 small cell lung was > 100 µM throughout. The TGI in the test on DMS 273 small cell lung and with LXFL 529 NSCLC was > 100 µM throughout.

With `N#CC1(C#N)C(C#N)(C#N)C12CCCCCC2`, the TGI is 38.5 µM in the test with SNB-78 CNS; 10.3 µM with DLD-1 colon; 32 µM in the test with KM20L2 colon; 30.3 µM in the test with HOP-18 NSCLC; 43.2 µM in the test with DMS 114 small cell lung; 52.4 µM in the test with DMS 273 small cell lung. Besides, the TGI with LXFL 529 NSCLC is 29.8 µM.

As for `O=C(c1ccccc1)c1cn(/N=C\c2ccccc2)c(=O)nc1-c1ccccc1`, the TGI in the test with SNB-78 CNS, in the test with DLD-1 colon, in the test with KM20L2 colon, in the test on HOP-18 NSCLC, in the test on DMS 114 small cell lung and in the test with LXFL 529 NSCLC was > 100 µM each time.

For `Clc1ccc(C(n2cc(Br)cn2)n2cc(Br)cn2)cc1`, the TGI came out at 44.4 µM in the test with SNB-78 CNS, 34.4 µM with HOP-18 NSCLC, 36.8 µM in the test on DMS 273 small cell lung and 29.5 µM in the test on LXFL 529 NSCLC.

Source of the values: PubChem BioAssay (NCI).
